Laboratory results from US20180311225A1, “EXTERNAL PREPARATION” (TEIKA PHARMACEUTICAL CO., LTD., priority 2015, published 2018).

Test system: allergic reaction at the conjunctiva sites (vascular hyperpermeability) of Wistar rats
Test: Rat passive allergic conjunctivitis model, Evans blue dye leakage (absorbance at 620 nm)
Assay type: in vivo
Conditions: Example 2, FIG. 1, presence or absence of the component
Description: As a trigger solution was used a solution prepared by mixing equal volumes of 1% (w/v) ovalbumin (Grade V; manufactured by Sigma-Aldrich Co. LLC)/physiological saline (manufactured by Otsuka Pharmaceutical Co., Ltd.) and 1% (w/v) Evans blue (manufactured by Wako Pure Chemical Industries, Ltd.)/physiological saline.
As an extraction solution was used an aqueous solution of acetone (manufactured by Wako Pure Chemical Industries, Ltd.)/0.5% (w/v) sodium sulfate (manufactured by Wako Pure Chemical Industries. Ltd.) (7:3).
After 48 h, 1 mL of the trigger solution was intravenously administered to trigger an allergic reaction at the conjunctiva sites. Then, each test solution was dropped onto the eyes at 15 min before and immediately before triggering the allergic reaction (the total of 2 times). […] The overnight extraction solution was centrifuged to recover a supernatant. Absorbance of the supernatant was measured at 620 nm.
Vascular hyperpermeability caused by an allergic reaction results in leakage of Evans blue. Thus, the less the amount of leakage of the dye, the more the vascular hyperpermeability is suppressed. This should be an indicator of the antiallergic effects. The amount of leakage of dye per tissue unit (gig/g) was calculated by using a predetermined standard curve. A dye amount ratio was calculated using the following equation to give an indicator of the suppression effects. […]

Compound | Contribution of the component to the antiallergic action when combined with ketotifen fumarate (group 6 compared with group 7, 8 or 10)
O=C([O-])O.[Na+] [sodium bicarbonate] | can contribute to an antiallergic action
[Cl-].[Na+] [sodium chloride] | can contribute to an antiallergic action
